The values below come from patent US7439027B2, “Method for modulating process mediated by farnesoid activated receptors” (The Salk Institute for Biological Studies, priority 1995, dated 2008).

Test [1] deals with T1, FAR-RXRα complex (rat FAR and human RXRα) (Rattus norvegicus, UniProt Q62735, D356M/DEL339-355/E357R/INS337LPDTQTCWKKEFERAAS).
T1 construct: expressed in transfected cells; host or cells: CV-1 cells, CMV-driven expression vectors
T1 sequence (Q62735 1-469): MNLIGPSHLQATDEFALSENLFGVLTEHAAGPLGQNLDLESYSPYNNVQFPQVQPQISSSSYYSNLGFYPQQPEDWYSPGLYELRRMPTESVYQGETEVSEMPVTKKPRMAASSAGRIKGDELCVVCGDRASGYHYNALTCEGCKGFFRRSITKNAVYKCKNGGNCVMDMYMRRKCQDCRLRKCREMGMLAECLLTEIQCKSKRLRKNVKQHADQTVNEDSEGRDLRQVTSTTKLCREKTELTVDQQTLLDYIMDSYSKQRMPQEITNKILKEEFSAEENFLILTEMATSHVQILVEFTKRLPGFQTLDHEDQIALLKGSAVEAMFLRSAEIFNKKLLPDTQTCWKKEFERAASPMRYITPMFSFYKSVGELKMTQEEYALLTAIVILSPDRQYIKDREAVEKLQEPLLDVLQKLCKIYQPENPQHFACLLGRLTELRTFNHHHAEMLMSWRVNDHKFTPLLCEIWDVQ
T1 sequence (P19793 1-462 partner): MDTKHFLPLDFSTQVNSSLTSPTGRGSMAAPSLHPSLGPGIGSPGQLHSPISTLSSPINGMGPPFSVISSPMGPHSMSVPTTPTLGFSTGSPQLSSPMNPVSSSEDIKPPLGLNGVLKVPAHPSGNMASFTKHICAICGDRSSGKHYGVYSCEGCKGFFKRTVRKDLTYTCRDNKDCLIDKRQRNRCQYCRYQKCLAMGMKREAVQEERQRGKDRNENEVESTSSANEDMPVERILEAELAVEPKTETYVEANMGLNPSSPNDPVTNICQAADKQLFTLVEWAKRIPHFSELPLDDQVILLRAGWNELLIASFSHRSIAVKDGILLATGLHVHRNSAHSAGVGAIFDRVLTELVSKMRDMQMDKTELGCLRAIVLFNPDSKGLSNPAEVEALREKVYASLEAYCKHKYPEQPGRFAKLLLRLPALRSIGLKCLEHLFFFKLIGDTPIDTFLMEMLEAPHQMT
In words: hsp27-EcRE×5 MTV-luciferase reporter cotransfection in CV-1 cells expressing FAR and RXRα. The following applies: for activation of FAR-RXRα complex, hsp27 EcRE reporter: FIG. 5C. Type of test: cell-based. How it is done: Thus, CV-1 cells were grown in DMEM supplemented with 10% AG1-X8 resin-charcoal stripped calf bovine serum, 50 U/ml penicillin G and 50 μg/ml streptomycin sulfate (DMEM-CBS) at 37° C. in 5% CO2. One day prior to transfection, cells were plated to 50-80% confluence using phenol-red free DMEM with 10% resin charcoal stripped fetal bovine serum (DMEM-FBS). Cells were transfected (with reporter construct (300 ng/10^5 cells), cytomegalovirus driven receptor (100 ng/10^5 cells) and β-galactosidase expression vectors (500 ng/10^5 cells) as indicated in FIG. 4) by lipofection using N-{2-(2,3)-dioleoyloxy)propyl-N,N,N-trimethyl ammonium methyl sulfate} according to the manufacturer's instructions (DOTAP, Boehringer Mannheim). […] Cells were harvested and assayed for luciferase and β-galactosidase activity. […] Data points were normalized for differences in transfection efficiency using β-galactosidase, and plotted as relative activity where the untreated reporter is defined to have an activity of 1 unit.
Based on the identification of an EcRE as a DNA target, a reporter plasmid was constructed containing 5 copies of the hsp27 response element linked to a truncated mouse mammary tumor virus promoter (Yao et al., Nature 366:476-479 (1993)). This reporter was cotransfected into CV-1 cells alone, or with expression vectors for FAR and/or RXRα. Cotransfected cells were treated with a variety of potential ligands and monitored for changes in luciferase activity.
Thus, with reference to FIG. 5A, CV-1 cells were transiently transfected with hsp27-EcRE×5 MTV-luciferase alone (−) or with expression vectors for rat FAR and/or human RXRα. Reporter activity was assayed after treating cells with or without 50 μM JH III.
CV-1 cells were transiently transfected as described above with reference to FIG. 5A, but treated with or without 50 μM JH III, 100 nM LG69 and JH III+LG69.
Thus, CV-1 cells were transiently transfected with expression vectors for rat FR and human RXRα, as described above in Example 3. […] Data is plotted in FIG. 6A as fold activation relative to untreated cells.

Test [2] concerns ornithine decarboxylase. As to conditions: 100 μM; bovine lymphocytes; cited from earlier work.
In test [3] the test system is Drosophila G-EcR+USP. Kind of test: G-EcR+USP / hsp27-EcRE×5 MTV luciferase reporter. The following applies: 50 μM JH III; FIG. 5B. In kind it is cell-based. How it is done:
(§1) Thus, CV-1 cells were grown in DMEM supplemented with 10% AG1-X8 resin-charcoal stripped calf bovine serum, 50 U/ml penicillin G and 50 μg/ml streptomycin sulfate (DMEM-CBS) at 37° C. in 5% CO2. One day prior to transfection, cells were plated to 50-80% confluence using phenol-red free DMEM with 10% resin charcoal stripped fetal bovine serum (DMEM-FBS). Cells were transfected (with reporter construct (300 ng/10^5 cells), cytomegalovirus driven receptor (100 ng/10^5 cells) and β-galactosidase expression vectors (500 ng/10^5 cells) as indicated in FIG. 4) by lipofection using N-{2-(2,3)-dioleoyloxy)propyl-N,N,N-trimethyl ammonium methyl sulfate} according to the manufacturer's instructions (DOTAP, Boehringer Mannheim). […] Cells were harvested and assayed for luciferase and β-galactosidase activity. All points were performed in triplicate and varied by less than 10%. Experiments were repeated three or more time with similar results. Data points were normalized for differences in transfection efficiency using β-galactosidase, and plotted as relative activity where the untreated reporter is defined to have an activity of 1 unit. […]
A general note: Reporter assays use an easily measured gene product as a stand-in for the process of interest.

In test [4] the target is T1, FAR-RXRα complex (rat FAR and human RXRα). In words: hsp27-EcRE×5 MTV-luciferase reporter cotransfection in CV-1 cells expressing FAR and RXRα. In kind it is cell-based. The following applies: JH III; parental MTV reporter without EcREs.
Test [5] has as its target T2, human RARα (Homo sapiens, UniProt P10276).
T2 construct: expressed in transfected cells
T2 sequence (P10276 1-462): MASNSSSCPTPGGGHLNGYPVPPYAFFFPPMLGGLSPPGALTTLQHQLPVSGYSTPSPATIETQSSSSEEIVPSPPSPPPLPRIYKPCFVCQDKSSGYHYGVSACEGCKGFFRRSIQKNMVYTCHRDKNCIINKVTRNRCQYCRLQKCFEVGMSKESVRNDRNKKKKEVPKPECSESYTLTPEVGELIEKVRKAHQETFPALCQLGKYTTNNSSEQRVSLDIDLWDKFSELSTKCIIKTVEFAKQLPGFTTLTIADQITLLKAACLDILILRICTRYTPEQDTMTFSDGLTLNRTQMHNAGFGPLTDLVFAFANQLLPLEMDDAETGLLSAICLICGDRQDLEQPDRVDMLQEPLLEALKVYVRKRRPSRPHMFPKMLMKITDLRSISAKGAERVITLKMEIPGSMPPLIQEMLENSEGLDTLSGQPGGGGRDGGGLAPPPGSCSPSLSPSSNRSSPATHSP
Kind of test: RARα / DR5×2-TK luciferase reporter. The following applies: 50 μM JH III; FIG. 5B. Type of test: cell-based. As for the experimental part:
as §1

Test [6] concerns the target T3, human T3Rβ (Homo sapiens, UniProt P10828).
T3 construct: expressed in transfected cells
T3 sequence (P10828 1-461): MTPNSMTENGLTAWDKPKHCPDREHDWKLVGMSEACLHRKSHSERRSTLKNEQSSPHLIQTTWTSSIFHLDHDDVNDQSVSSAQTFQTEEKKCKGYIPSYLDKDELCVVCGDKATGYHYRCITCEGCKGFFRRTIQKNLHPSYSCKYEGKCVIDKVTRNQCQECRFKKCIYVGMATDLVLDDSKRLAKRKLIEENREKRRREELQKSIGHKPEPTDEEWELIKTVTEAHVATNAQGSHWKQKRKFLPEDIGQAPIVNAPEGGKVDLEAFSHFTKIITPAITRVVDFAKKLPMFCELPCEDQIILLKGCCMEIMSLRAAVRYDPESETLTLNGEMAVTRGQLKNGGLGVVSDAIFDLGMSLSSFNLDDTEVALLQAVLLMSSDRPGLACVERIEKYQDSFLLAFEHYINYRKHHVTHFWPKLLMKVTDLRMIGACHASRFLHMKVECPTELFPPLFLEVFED
Kind of test: T3Rβ / TREp×2-TK luciferase reporter. The following applies: 50 μM JH III; FIG. 5B. Type of test: cell-based. How it is done:
as §1

Test [7] concerns the target T4, human RXRα (Homo sapiens, UniProt P19793).
T4 construct: expressed in transfected cells; host or cells: CV-1 cells, CMV-driven expression vector
T4 sequence (P19793 1-462): T1 sequence (P19793 1-462 partner)
In words: luciferase reporter in CV-1 cells expressing RXRα alone (hsp27-EcRE×5 MTV; CRBPII-TK). In kind it is cell-based. The following applies: 50 μM JH III; FIGS. 5A and 5B. How it is done: Thus, CV-1 cells were grown in DMEM supplemented with 10% AG1-X8 resin-charcoal stripped calf bovine serum, 50 U/ml penicillin G and 50 μg/ml streptomycin sulfate (DMEM-CBS) at 37° C. in 5% CO2. One day prior to transfection, cells were plated to 50-80% confluence using phenol-red free DMEM with 10% resin charcoal stripped fetal bovine serum (DMEM-FBS). Cells were transfected (with reporter construct (300 ng/10^5 cells), cytomegalovirus driven receptor (100 ng/10^5 cells) and β-galactosidase expression vectors (500 ng/10^5 cells) as indicated in FIG. 4) by lipofection using N-{2-(2,3)-dioleoyloxy)propyl-N,N,N-trimethyl ammonium methyl sulfate} according to the manufacturer's instructions (DOTAP, Boehringer Mannheim). […] Cells were harvested and assayed for luciferase and β-galactosidase activity. All points were performed in triplicate and varied by less than 10%. Experiments were repeated three or more time with similar results. Data points were normalized for differences in transfection efficiency using β-galactosidase, and plotted as relative activity where the untreated reporter is defined to have an activity of 1 unit.
Thus, with reference to FIG. 5A, CV-1 cells were transiently transfected with hsp27-EcRE×5 MTV-luciferase alone (−) or with expression vectors for rat FAR and/or human RXRα. Reporter activity was assayed after treating cells with or without 50 μM JH III. […]

The target of test [8] is T5, rat FAR (Rattus norvegicus, UniProt Q62735, D356M/DEL339-355/E357R/INS337LPDTQTCWKKEFERAAS).
T5 construct: expressed in transfected cells; host or cells: CV-1 cells, CMV-driven expression vector
T5 sequence (Q62735 1-469 INS337LPDTQTCWKKEFERAAS/DEL339-355/D356M/E357R): T1 sequence (Q62735 1-469)
In words: hsp27-EcRE×5 MTV-luciferase reporter in CV-1 cells expressing FAR alone. In kind it is cell-based. As to conditions: 50 μM JH III; FIG. 5A. How it is done:
as §1, with “results.” for “results. Data points were normalized for differences in transfection efficiency using β-galactosidase, and plotted as relative activity where the untreated reporter is defined to have an activity of 1 unit.”
Based on the identification of an EcRE as a DNA target, a reporter plasmid was constructed containing 5 copies of the hsp27 response element linked to a truncated mouse mammary tumor virus promoter (Yao et al., Nature 366:476-479 (1993)). […] Cotransfected cells were treated with a variety of potential ligands and monitored for changes in luciferase activity. […]

As for `C[C@H](CCC1OC1(C)C)[C@H]1CC[C@H]2[C@@H]3CC=C4C[C@@H](O)CC[C@]4(C)[C@H]3CC[C@]12C` (some centres unmarked) [24,25-epoxycholesterol], the “activation of FAR-RXRα (in words)” value in test [1] (50 μM, FIG. 6A) is recorded as “little or no activation”.

For `C[C@H](CCCC(C)(C)O)[C@H]1CC[C@H]2[C@@H]3CC=C4C[C@@H](O)CC[C@]4(C)[C@H]3CC[C@]12C` [25-hydroxycholesterol], the “activation of FAR-RXRα (in words)” value in test [1] (10 μM) is on record as “little or no activation”.

Take `COC(=O)/C=C(\C)CC/C=C(\C)CCC1OC1(C)C` (stereo not drawn) [JH III, cis-10,11-epoxy-3,7,11-trimethyl-trans-trans-2,6-dodecadienoic acid methyl ester]: the “antagonism of induction of ornithine decarboxylase by phorbol esters and phytohemagglutinin” value in test [2] is “can be antagonized”. Moreover, the “activation of ecdysone receptor (EcR+USP)” value in test [3] is “failed to activate”. In addition, the “activation of FAR-RXR complexes using parental MTV reporter construct lacking the EcREs” value in test [4] is recorded as “failed to activate”. Moreover, the “activation of all-trans retinoic acid receptor (RAR)” value in test [5] is “failed to activate”. In addition, the “induction of luciferase activity” value in test [1] (50 μM JH III, CV-1 cells expressing both FAR and RXRα, FIG. 5A) is on record as 10 fold. The “activation of FAR-RXRα complex, hsp27 EcRE reporter” value in test [1] (50 μM JH III) worked out at 17 fold. Moreover, the “activation of thyroid hormone receptor (T3R)” value in test [6] is “failed to activate”. Besides, in test [7], the “activation of RXRα alone” value is listed as “fails to activate”. Moreover, in test [8], the “activation of FAR alone” value is on record as “fails to activate”.

For the compound `CC=C(c1ccc(C(=O)O)cc1)c1cc2c(cc1C)C(C)(C)CCC2(C)C` [LG69, (4-{1-3,5,5,8,8-pentamethyl-5,6,7,8-tetrahydro-2-napthalenyl)-1-propenyl}benzoic acid], in test [1] (100 nM LG69), the “activation of FAR-RXRα complex, hsp27 EcRE reporter” value was found to be 76 fold.

`CC(C)=CCCC(C)=CCCC(C)=CC=O` [farnesal]: in test [1] (50 μM, FIG. 6A), the “activation of FAR-RXRα (in words)” value is “weaker activity”.

Take `CC(C)=CCCC(C)=CCCC(C)=CC(=O)O` [farnesoic acid]: in test [1] (50 μM, FIG. 6A), the “activation of FAR-RXRα (in words)” value was “little or no activation”.
